Source: ChEMBL document CHEMBL1201862, “PubChem BioAssay data set” (2004)
Active and inactive are the calls of the source.

How the values were obtained:
[1] = target: T1, Scavenger receptor class B member 1 (Mus musculus, UniProt Q61009); test: mouse SR-BI DiI-HDL uptake blockers – ldlA[mSR-BI] cells, fluorescence, cherry pick, dose response (AID 493194); assay type: functional, cell-based;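 also: cellular uptake of fluorescent DiI-labeled HDL measured as cell fluorescence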
T1 sequence (Q61009 whole entry): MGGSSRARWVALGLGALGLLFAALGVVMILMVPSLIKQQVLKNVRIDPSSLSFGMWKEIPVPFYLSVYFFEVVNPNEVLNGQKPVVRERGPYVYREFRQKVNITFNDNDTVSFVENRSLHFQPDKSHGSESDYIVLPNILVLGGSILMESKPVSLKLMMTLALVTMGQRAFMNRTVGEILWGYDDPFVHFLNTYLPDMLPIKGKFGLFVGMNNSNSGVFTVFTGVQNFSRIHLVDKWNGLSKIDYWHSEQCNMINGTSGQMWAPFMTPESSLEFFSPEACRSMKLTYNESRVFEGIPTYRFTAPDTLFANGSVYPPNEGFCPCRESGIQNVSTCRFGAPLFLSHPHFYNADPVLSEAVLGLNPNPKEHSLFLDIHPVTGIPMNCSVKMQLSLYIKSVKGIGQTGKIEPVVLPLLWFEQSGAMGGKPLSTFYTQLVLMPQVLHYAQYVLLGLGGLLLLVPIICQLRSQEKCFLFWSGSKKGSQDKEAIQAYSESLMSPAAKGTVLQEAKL

[2] = target: T2, Heat shock factor protein 1 (Mus musculus, UniProt P38532); test: decrease of HSF1-responsive luciferase luminescence – cell-based, NIH3T3, dose retest, confirmation (AID 2382); assay type: functional;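 also: NIH3T3 fibroblasts with HSF1-driven luciferase reporter stressed by proteasome inhibitor MG132; luminescence from HSF1-driven luciferase expression after 8 hours of MG132 stress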
T2 sequence (P38532 whole entry): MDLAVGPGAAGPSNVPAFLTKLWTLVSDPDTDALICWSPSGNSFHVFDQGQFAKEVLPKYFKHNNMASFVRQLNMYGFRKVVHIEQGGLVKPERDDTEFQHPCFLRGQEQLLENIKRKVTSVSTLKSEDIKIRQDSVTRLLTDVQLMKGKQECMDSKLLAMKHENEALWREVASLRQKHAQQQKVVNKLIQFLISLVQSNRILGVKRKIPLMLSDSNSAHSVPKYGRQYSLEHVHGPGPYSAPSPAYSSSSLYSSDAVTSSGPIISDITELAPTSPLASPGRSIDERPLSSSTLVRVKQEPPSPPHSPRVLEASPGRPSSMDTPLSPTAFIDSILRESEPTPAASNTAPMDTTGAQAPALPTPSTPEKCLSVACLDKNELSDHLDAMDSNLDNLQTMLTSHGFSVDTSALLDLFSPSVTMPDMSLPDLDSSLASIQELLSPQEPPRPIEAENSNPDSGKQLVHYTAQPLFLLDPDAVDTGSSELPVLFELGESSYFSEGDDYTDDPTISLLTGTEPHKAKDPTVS

X-box-binding protein 1 = target: T3, X-box-binding protein 1 (Homo sapiens, UniProt P17861); assay type: functional, Cricetulus griseus;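 also: confirmatory dose-response counter-screen serving a CHOP assay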
T3 sequence (P17861 whole entry): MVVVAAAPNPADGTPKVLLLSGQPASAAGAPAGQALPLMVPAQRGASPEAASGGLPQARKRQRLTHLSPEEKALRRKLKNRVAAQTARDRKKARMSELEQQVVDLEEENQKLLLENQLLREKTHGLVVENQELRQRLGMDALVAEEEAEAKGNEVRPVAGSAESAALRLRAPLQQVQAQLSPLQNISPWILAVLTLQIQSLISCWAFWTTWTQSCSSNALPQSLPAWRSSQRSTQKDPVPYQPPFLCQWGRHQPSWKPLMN

[3] = A Cell Based Secondary Assay To Explore Cytotoxicity of Compounds that Sensitize Mycobacterium Tuberculosis to Beta-Lactam Antibiotics.; assay type: functional
[4] = Luminescence Cell-Based Dose Retest to Confirm Inhibitors of Cancer Stem Cells. [Related pubchem assays (depositor defined):AID2717, AID2721]; assay type: functional; conditions: Homo sapiens
[5] = target: T4, Corticotropin-releasing factor receptor 2/Corticotropin-releasing factor-binding protein (Homo sapiens, UniProt P24387+Q13324); test: activators of CRF receptor 2 with binding protein – uHTS hits, confirmation (AID 602473); assay type: functional; conditions: read-out: EC50_Mean
T4 sequence (Q13324 whole entry): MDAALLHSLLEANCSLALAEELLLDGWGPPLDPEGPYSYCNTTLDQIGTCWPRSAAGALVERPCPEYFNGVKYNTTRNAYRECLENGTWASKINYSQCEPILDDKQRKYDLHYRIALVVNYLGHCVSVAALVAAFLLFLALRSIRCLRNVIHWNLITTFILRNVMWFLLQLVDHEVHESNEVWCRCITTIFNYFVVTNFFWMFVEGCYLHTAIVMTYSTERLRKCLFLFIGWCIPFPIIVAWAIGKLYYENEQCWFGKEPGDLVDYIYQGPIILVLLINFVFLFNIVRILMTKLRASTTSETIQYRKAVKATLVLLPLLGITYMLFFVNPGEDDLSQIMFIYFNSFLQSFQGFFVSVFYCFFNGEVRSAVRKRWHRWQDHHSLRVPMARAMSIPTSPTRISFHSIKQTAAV
T4 sequence (P24387 whole entry): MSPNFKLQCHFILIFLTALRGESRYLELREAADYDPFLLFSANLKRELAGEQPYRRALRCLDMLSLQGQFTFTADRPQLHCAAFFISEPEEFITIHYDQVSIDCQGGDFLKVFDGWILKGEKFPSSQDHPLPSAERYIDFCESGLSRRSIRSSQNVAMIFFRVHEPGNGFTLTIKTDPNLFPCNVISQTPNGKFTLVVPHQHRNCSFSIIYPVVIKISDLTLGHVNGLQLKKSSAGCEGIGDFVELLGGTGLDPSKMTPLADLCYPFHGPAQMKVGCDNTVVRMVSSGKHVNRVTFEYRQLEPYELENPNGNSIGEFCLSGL

[6] = Trypanosoma cruzi growth suppression in host cells – NIH3T3 host cells, beta-gal luminescence, confirmation (AID 2044); assay type: functional, cell-based;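 also: intracellular parasites grown in NIH/3T3 mouse fibroblasts as host cells; luminescent beta-galactosidase reporter signal from transgenic T. cruzi replicating inside host cells; inhibitors lower the luminescence signal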
[7] = NIH3T3 cell viability loss – ATP luminescence, mouse fibroblasts, counter-screen, dose response (AID 2010); assay type: functional, cell-based;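 also: cells exposed to compound for about 90 hours before reading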
Bcl-2-like protein 10 = target: T5, Bcl-2-like protein 10 (Homo sapiens, UniProt Q9HD36); test: Bcl-B/TR3 peptide binding disruption – biochemical, fluorescence polarization, FITC-TR3 peptide, selectivity assay for Bfl-1 inhibitor project, primary screen (AID 748);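 also: fluorescence polarization from a fluorescein-labelled TR3 peptide binding purified Bcl-B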
T5 sequence (Q9HD36 whole entry): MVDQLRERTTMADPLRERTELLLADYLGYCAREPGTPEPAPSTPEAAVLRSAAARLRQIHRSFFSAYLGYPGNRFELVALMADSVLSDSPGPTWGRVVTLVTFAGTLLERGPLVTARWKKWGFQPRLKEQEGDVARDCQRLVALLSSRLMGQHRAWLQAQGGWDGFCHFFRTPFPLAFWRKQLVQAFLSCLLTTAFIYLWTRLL

[8] = target: T6, Aryl hydrocarbon receptor (Homo sapiens, UniProt P35869); test: Luminescence-based cell-based high throughput dose response assay for activators of the Aryl Hydrocarbon Receptor (AHR). [Related pubchem assays: 2796 (Primary screen (AHR activators in singlicate)), 2845 (Confirmation screen (AHR activators in triplicate)), 434939 (Counterscreen (PXR activators in triplicate)), 2804 (Summary (AHR activators))]; assay type: ADME
T6 sequence (P35869 whole entry): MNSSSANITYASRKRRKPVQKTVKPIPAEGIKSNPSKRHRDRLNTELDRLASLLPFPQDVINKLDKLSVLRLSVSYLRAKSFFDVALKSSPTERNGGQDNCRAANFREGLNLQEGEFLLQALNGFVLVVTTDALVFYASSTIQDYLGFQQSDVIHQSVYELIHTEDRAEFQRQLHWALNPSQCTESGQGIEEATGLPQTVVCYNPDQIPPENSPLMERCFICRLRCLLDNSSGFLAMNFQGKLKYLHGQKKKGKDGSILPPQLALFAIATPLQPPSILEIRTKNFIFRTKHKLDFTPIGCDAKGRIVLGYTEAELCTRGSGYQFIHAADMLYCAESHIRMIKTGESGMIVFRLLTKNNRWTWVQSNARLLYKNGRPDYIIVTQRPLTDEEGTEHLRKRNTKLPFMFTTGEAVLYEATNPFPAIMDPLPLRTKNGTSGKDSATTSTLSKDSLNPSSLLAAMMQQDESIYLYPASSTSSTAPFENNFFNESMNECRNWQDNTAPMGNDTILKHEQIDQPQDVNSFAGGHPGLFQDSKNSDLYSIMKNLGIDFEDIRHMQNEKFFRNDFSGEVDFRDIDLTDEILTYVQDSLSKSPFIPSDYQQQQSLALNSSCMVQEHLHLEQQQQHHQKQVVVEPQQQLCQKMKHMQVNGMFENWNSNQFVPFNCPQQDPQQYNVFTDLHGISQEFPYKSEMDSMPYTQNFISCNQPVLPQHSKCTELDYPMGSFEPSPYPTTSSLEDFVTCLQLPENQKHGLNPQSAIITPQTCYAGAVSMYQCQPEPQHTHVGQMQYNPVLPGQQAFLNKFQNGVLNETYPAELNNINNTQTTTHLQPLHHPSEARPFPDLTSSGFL

Cytochrome P450 2C9 = Cytochrome P450 2C9 (Homo sapiens, UniProt P11712)
Cytochrome P450 1A2 = target: T7, Cytochrome P450 1A2 (Homo sapiens, UniProt P05177);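 also: PubChem cytochrome P450 panel assay, CYP1A2 panel member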
T7 sequence (P05177 whole entry): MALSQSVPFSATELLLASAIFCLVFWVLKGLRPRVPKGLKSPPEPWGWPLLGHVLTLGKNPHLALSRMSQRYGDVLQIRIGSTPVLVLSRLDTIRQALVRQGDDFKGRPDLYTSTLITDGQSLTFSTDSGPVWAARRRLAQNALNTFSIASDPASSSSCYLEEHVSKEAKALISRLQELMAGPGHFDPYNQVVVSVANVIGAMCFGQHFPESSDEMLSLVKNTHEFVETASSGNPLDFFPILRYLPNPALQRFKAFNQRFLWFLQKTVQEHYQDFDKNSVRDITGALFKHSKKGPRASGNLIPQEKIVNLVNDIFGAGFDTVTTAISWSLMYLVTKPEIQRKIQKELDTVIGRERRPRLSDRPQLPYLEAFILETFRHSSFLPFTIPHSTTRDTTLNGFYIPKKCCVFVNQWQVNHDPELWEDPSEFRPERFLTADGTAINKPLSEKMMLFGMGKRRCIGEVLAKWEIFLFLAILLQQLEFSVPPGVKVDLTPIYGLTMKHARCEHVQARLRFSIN

INS1 = test: INS-1E survival protection against cytokine death – cell-based, luminescence, retest, dose response (AID 449756); assay type: functional; conditions: Rattus norvegicus;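 also: cell death triggered by IL-1 beta plus TNF-alpha plus IFN-gamma mixture; protective hits raise ATP signal compared with cytokine alone wells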

Cytochrome P450 2C9, sequence (P11712 whole entry): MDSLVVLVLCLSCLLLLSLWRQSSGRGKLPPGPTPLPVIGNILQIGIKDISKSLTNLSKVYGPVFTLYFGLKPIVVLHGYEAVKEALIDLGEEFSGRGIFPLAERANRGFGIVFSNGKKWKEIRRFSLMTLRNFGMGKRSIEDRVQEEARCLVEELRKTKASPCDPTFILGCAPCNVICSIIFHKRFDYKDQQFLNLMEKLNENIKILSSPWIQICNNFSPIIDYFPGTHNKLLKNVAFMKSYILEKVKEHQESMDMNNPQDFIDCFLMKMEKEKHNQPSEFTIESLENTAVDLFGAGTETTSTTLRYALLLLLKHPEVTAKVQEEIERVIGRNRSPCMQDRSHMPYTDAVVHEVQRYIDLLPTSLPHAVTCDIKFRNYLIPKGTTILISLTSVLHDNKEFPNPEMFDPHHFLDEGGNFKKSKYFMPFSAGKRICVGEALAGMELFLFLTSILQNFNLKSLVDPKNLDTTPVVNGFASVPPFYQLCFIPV

Structure (SMILES): Nc1ccc(Nc2nc(-c3cccs3)cs2)cc1
- AC50 [1]: 8.4 µM (active)

Structure (SMILES): COc1ccc2sc(-c3ccc(N(C)C)cc3)c(C#CC(C)(C)O)c2c1
- AC50 [1]: 2.73 µM (active)

Structure (SMILES): COc1cc(/C=C/c2nc(N)nc(-c3ccccc3O)n2)cc(OC)c1OC
- EC50 [2]: 36.1 µM (active)
- Absolute IC50 (XBP1) (X-box-binding protein 1): 10 µM

Structure (SMILES): C=CCNCCCOc1ccc(Cl)cc1C(C)(C)C
- CC50 [3]: 28.8 µM (active)
- AC50 [4]: 16.1 µM (active)

Structure (SMILES): COc1cc(/C=C(/C#N)c2nc(O)c3ccccc3n2)ccc1O
- EC50 [5]: > 53 µM (inactive)
- Absolute IC50 (XBP1) (X-box-binding protein 1): 10 µM

Structure (SMILES): Fc1ccccc1N1CCN(C2CCCN(Cc3cccc(C(F)(F)F)c3)C2)CC1 (centres undefined)
- EC50 (cells): 0.656 µM (active)
- EC50 [6]: < 0.1 µM (active)
- EC50 [7]: > 60 µM (not active)

Structure (SMILES): CCOc1ccc(C2=C/C(=C/c3cccnc3)C(=O)O2)cc1
- Absolute IC50 (XBP1) (X-box-binding protein 1): 10 µM

Structure (SMILES): Brc1ccc2ncnc(Nc3ccc(N4CCOCC4)cc3)c2c1
- EC50 [6]: 0.92 µM (active)
- IC50 (Bcl-2-like protein 10): > 50 µM (inactive)
- EC50 [8]: 1.14 µM (active)
- EC50 [7]: > 60 µM (not active)

Structure (SMILES): CC(=O)Nc1ccc(Nc2ncc([N+](=O)[O-])c(Nc3ccc(NC(C)=O)cc3)n2)cc1
- CC50 [3]: > 40 µM (active)
- AC50 (Cytochrome P450 2C9): 0.355 µM (inconclusive)
- AC50 (Cytochrome P450 1A2): 22.4 µM (inconclusive)

Structure (SMILES): CN1CCC(OC(=O)c2ccc(Br)cc2)CC1
- EC50 (cells): 0.029 µM (active)
- EC50 [6]: < 0.1 µM (active)
- EC50 [7]: > 60 µM (not active)

Structure (SMILES): CCCNc1nc(Cl)nc(Nc2ccc(Cl)cc2)n1
- EC50 [8]: 3.38 µM (active)

Structure (SMILES): O=C(CN(C(=O)Cn1nnc(-c2ccc(F)cc2)n1)C1CCCC1)NC1CCCC1
- AC50 [1]: 0.184 µM (active)

Structure (SMILES): COc1cc(/C=N/NC(=O)c2cccnc2)cc2c1OCO2
- EC50 [8]: 6.16 µM (active)

Structure (SMILES): COc1ccc2c(c1)N(C)/C(=C/c1cccc[n+]1C)S2
- EC50 (cells): 0.029 µM (active)
- EC50 [6]: < 0.1 µM (active)
- AC50 (INS1): 1.13 µM (active)
- EC50 [7]: > 60 µM (not active)
